These are literature values, as cited in patent US20210059962A1, “STIMULATION OF T REGULATORY CELLS BY CANNABIDIOL AS A MEANS OF TREATING ARTHRITIS AND AUTOIMMUNITY” (priority 2019, published 2021).

Molecules are shown by their SMILES.

Series [1] has as its system HUT-78 T-cells.
Series [2] has as its system eosinophilic cells.
Series [3] deals with HTLV-1 positive B-cells.
For series [4], the system named is B-cells.
For series [5], the system named is NK cells.

`C=C(C)[C@@H]1CCC(C)=C[C@H]1c1c(O)cc(CCCCC)cc1O` [CBD, 2-[3-methyl-6-(1-methylethenyl)-2-cyclohexen-1-yl]-5-pentyl-1,3-benzenedi-of]: the IL-10 production result in series [1] is on record as “strongly inhibited”.
For the compound `CCCCCc1cc(O)c2c(c1)OC(C)(C)[C@@H]1CCC(C)=C[C@@H]21` [THC, delta9 tetrahydrocannabinol], the IL-10 production result in series [1] is given as “strongly inhibited”. In addition, in series [2], the IL-8 production entry is “doubled” and the MIP-lbeta production entry is “tripled”. Also, the MIP-lbeta production result in series [3] is recorded as “inhibited”. For the same compound, in series [4], the IL-8 production entry is given as “tripled”, the MIP-1alpha production result is listed as “tripled” and the MIP-1beta production result was “tripled”. For the same compound, in series [5] (constitutive), the “constitutive production of IL-8” value was “decreased”, the “constitutive production of MIP-lalpha” value is listed as “decreased”, the “constitutive production of MIP-lbeta” value was “decreased” and the “constitutive production of RANTES” value is given as “decreased”. Further, in series [5] (phorbol ester stimulated), the “phorbol ester stimulated production of GM-CSF” value was “decreased”, the “phorbol ester stimulated production of IFN-gamma” value is “decreased” and the “phorbol ester stimulated production of TNF-alpha” value is recorded as “decreased”.
